Data taken from patent US10722514B2 (FLX Bio, Inc., priority 2017, dated 2020).
Read-outs that look alike come from different tables or passages of the source.

Molecular target: T1, recombinant full-length USP7 (Homo sapiens, UniProt Q93009)
T1 construct: A 25 μl reaction volume containing recombinant full-length USP7 (62 pM)
Experiment: USP7-mediated ubiquitin-rhodamine cleavage assay
Type: biochemical
Details: recombinant full-length USP7 62 pM, ubiquitin-rhodamine 100 nM, 1 hour reaction at room temperature
Method: In the case of the USP7 deubiquitylating enzyme, the IC50 of an USP7 inhibiting compound is the concentration of the compound that inhibits 50% of the activity observed in a USP7-mediated ubiquitin-rhodamine cleavage assay.
For the USP7 inhibitors disclosed herein, their potency was measured using the following test method.
A 25 μl reaction volume containing recombinant full-length USP7 (62 pM) in 20 mM HEPES pH 7.3, 150 mM NaCl, 1 mM TCEP, and 125 μg/ml BSA was assembled in wells of 384 well plates. Test compounds were dispensed with a Hewlett Packard D300 digital dispenser (1% final DMSO). Following a 30-minute incubation at room temperature, ubiquitin-rhodamine was added with the D300 to a final concentration of 100 nM and the reaction was allowed to proceed for 1 hour at room temperature protected from light. The reaction was stopped by the addition of 5 μl 1M acetic acid. Rhodamine fluorescence was measured using an Envision plate reader (Perkin Elmer) and IC50 values were determined by non-linear regression using a 4-parameter fit in a Dotmatics (Bishops Stortford, Hertfordshire, England) software package.

[1] = 30-minute pre-incubation, read-out: Potency (USP7 IC50)
[2] = 30-minute incubation with compound, read-out: Potency: USP7 IC50
[3] = 30-minute incubation, read-out: Potency (USP7 IC50)

T1 sequence (Q93009 whole entry): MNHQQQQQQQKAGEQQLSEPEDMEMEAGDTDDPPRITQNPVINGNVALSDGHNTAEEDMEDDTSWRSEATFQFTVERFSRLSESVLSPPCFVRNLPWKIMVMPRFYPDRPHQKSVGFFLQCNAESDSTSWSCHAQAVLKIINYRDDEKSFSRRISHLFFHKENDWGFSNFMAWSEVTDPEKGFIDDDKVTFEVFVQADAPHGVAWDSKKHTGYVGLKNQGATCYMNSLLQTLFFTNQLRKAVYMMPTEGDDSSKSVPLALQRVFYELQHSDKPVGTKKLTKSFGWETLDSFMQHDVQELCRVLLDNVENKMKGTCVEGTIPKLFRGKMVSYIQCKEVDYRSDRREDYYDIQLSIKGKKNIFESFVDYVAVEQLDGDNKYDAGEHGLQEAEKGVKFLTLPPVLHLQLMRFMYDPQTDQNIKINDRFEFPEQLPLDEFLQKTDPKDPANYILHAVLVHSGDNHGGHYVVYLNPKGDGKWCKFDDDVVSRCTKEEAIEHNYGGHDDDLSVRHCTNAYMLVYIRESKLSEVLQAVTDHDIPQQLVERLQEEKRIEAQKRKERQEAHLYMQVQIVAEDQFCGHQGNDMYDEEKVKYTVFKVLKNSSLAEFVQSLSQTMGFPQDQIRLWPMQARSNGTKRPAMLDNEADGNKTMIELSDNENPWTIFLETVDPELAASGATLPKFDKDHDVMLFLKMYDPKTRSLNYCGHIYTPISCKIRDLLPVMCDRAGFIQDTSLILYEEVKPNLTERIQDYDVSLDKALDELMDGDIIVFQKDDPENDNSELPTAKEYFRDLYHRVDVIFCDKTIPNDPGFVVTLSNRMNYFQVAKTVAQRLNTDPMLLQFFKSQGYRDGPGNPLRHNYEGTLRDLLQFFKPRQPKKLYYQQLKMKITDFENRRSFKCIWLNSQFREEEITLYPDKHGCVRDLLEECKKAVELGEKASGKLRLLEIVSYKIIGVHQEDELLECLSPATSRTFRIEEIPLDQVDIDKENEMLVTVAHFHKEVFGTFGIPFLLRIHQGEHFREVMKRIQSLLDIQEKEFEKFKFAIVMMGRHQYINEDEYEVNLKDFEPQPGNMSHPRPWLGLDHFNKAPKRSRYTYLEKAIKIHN

IC50 [1] [nM] | IC50 [2] [nM] | SMILES | further results
< 1000 | – | Cc1cc(Cl)cc(-c2ccnc3cc(Cn4c(=O)ccn(C)c4=O)sc23)c1O[C@@H]1CNCC[C@@H]1F [Example 570, 3-[[7-[5-chloro-2-[[(3R,4S)-4-fluoro-3-piperidyl]oxy]-3-methyl-phenyl]thieno[3,2-b]pyridin-2-yl]methyl]-1-methyl-pyrimidine-2,4-dione] | –
– | < 1000 | Cc1cc(Cl)cc(-c2ccnc3cc(Cn4c(=O)ccn(C)c4=O)sc23)c1O[C@H]1CCCNC1 [Example 161, (S)-3-((7-(5-Chloro-3-methyl-2-(piperidin-3-yloxy)phenyl)thieno[3,2-b]pyridin-2-yl)methyl)-1-methylpyrimidine-2,4(1H,3H)-dione] | –
< 1000 | – | Cc1cc(Cl)cc(-c2ccnc3cc(Cn4c(=O)ccn(CC(F)(F)F)c4=O)sc23)c1O[C@@H]1CNC[C@H](F)C1 [Example 623, 3-[[7-[5-chloro-2-[[(3S,5R)-5-fluoro-3-piperidyl]oxy]-3-methyl-phenyl]thieno[3,2-b]pyridin-2-yl]methyl]-1-(2,2,2-trifluoroethyl)pyrimidine-2,4-dione; 2,2,2-trifluoroacetic acid] | –
– | 10000 to 30000 | Cc1cc(Cl)cc(-c2ccnc3ccsc23)c1OC1CCCCNC1 (stereo not drawn) [Example 264, 7-(2-(Azepan-3-yloxy)-5-chloro-3-methylphenyl)thieno[3,2-b]pyridine] | –
– | < 1000 | Cc1cc(C(F)(F)F)cc(-c2ccnc3cc(CN4C(=O)CCC4=O)sc23)c1OC1CCNCC1 [Example 253, 1-((7-(3-Methyl-2-(piperidin-4-yloxy)-5-(trifluoromethyl)phenyl)thieno[3,2-b]pyridin-2-yl)methyl)pyrrolidine-2,5-dione] | –
< 1000 | – | Cc1cc(Cl)cc(-c2ccnc3cc(Cn4c(=O)ccn(CC(F)(F)F)c4=O)sc23)c1O[C@H]1CC[C@H](C)NC1 [Example 598, 3-[[7-[5-chloro-3-methyl-2-[[(3S,6S)-6-methyl-3-piperidyl]oxy]phenyl]thieno[3,2-b]pyridin-2-yl]methyl]-1-(2,2,2-trifluoroethyl)pyrimidine-2,4-dione; 2,2,2-trifluoroacetic acid] | –
– | 10000 to 30000 | Cc1cc(Cl)cc(-c2ccnc3cc(CO)sc23)c1O[C@@H]1CN[C@H](C)C1 [Example 62, (7-(5-Chloro-3-methyl-2-(((3S,5R)-5-methylpyrrolidin-3-yl)oxy)phenyl)thieno[3,2-b]pyridin-2-yl)methanol] | –
– | < 1000 | Cc1cc(Cl)cc(-c2ccnc3cc(CN4C(=O)CCC4=O)sc23)c1O[C@@H]1CN(CC(C)(C)C)C[C@@H]1F [Example 336, 1-[[7-[5-chloro-2-[(3R,4S)-1-(2,2-dimethylpropyl)-4-fluoro-pyrrolidin-3-yl]oxy-3-methyl-phenyl]thieno[3,2-b]pyridin-2-yl]methyl]pyrrolidine-2,5-dione] | –
< 1000 | – | Cc1cc(Cl)cc(-c2ccnc3cc(Cn4c(=O)ccn(CC(F)(F)F)c4=O)sc23)c1OC1(C)CCCNC1 (stereo not drawn) [Example 639, 3-[[7-[5-chloro-3-methyl-2-[(3-methyl-3-piperidyl)oxy]phenyl]thieno[3,2-b]pyridin-2-yl]methyl]-1-(2,2,2-trifluoroethyl)pyrimidine-2,4-dione] | –
< 1000 | – | Cc1cc(Cl)cc(-c2ccnc3cc(Cn4c(=O)ccn(C)c4=O)sc23)c1O[C@@H]1CNC[C@H](C)C1 [Example 524, 3-[[7-[5-chloro-3-methyl-2-[[(3S,5R)-5-methyl-3-piperidyl]oxy]phenyl]thieno[3,2-b]pyridin-2-yl]methyl]-1-methyl-pyrimidine-2,4-dione] | –
< 1000 | – | Cc1cc(Cl)cc(-c2ccnc3cc(Cn4c(=O)ccn(C)c4=O)sc23)c1OC1CNCCC1(F)F (stereo not drawn) [Example 514, 3-[[7-[5-chloro-2-[(4,4-difluoro-3-piperidyl)oxy]-3-methyl-phenyl]thieno[3,2-b]pyridin-2-yl]methyl]-1-methyl-pyrimidine-2,4-dione; 2,2,2-trifluoroacetic acid] | –
– | < 1000 | Cc1cc(Cl)cc(-c2ccnc3cc(CN4C(=O)C5CCCC5C4=O)sc23)c1O[C@@H]1CNC[C@@H]1F (stereo partly drawn) [Example 141, 2-((7-(5-Chloro-2-(((3R,4S)-4-fluoropyrrolidin-3-yl)oxy)-3-methylphenyl)thieno[3,2-b]pyridin-2-yl)methyl)tetrahydrocyclopenta[c]pyrrole-1,3(2H,3aH)-dione] | –
< 1000 | – | Cc1cc(Cl)cc(-c2ccnc3cc(Cn4c(=O)ccn(CC(F)(F)F)c4=O)sc23)c1OC1(C)CCNCC1 [Example 618, 3-[[7-[5-chloro-3-methyl-2-[(4-methyl-4-piperidyl)oxy]phenyl]thieno[3,2-b]pyridin-2-yl]methyl]-1-(2,2,2-trifluoroethyl)pyrimidine-2,4-dione] | –
< 1000 | – | Cc1cc(Cl)cc(-c2ccnc3cc(Cn4c(=O)ccn(C)c4=O)sc23)c1O[C@@H]1CNC[C@@H](F)C1 [Example 496, 3-[[7-[5-chloro-2-[[(3S,5S)-5-fluoro-3-piperidyl]oxy]-3-methyl-phenyl]thieno[3,2-b]pyridin-2-yl]methyl]-1-methyl-pyrimidine-2,4-dione] | –
< 1000 | – | Cc1cc(Cl)cc(-c2ccnc3cc(Cn4c(=O)ccn(C)c4=O)sc23)c1OC1CCNC(C)(C)C1 (stereo not drawn) [Example 572, 3-[[7-[5-chloro-2-[(2,2-dimethyl-4-piperidyl)oxy]-3-methyl-phenyl]thieno[3,2-b]pyridin-2-yl]methyl]-1-methyl-pyrimidine-2,4-dione; 2,2,2-trifluoroacetic acid] | –
– | – | COC[C@@H]1CCC[N+]1(C)C1CC(Oc2c(C)cc(Cl)cc2-c2ccnc3cc(Cn4c(=O)ccn(CC(F)(F)F)c4=O)sc23)C1 (stereo partly drawn) [Example 688, 3-[[7-[5-chloro-2-[3-[(2S)-2-(methoxymethyl)-1-methyl-pyrrolidin-1-ium-1-yl]cyclobutoxy]-3-methyl-phenyl]thieno[3,2-b]pyridin-2-yl]methyl]-1-(2,2,2-trifluoroethyl)pyrimidine-2,4-dione; 2,2,2-trifluoroacetate; 2,2,2-trifluoroacetic acid] | IC50 [3]: < 1000 nM
– | < 1000 | Cc1cc(Cl)cc(-c2ncnc3cc(Cn4c(=O)ccn(CC(F)(F)F)c4=O)sc23)c1O[C@@H]1CCNC[C@@H]1F [Example 170, 3-((4-(5-Chloro-2-(((3S,4R)-3-fluoropiperidin-4-yl)oxy)-3-methylphenyl)thieno[3,2-d]pyrimidin-6-yl)methyl)-1-(2,2,2-trifluoroethyl)pyrimidine-2,4(1H,3H)-dione] | –
< 1000 | – | Cc1cc(Cl)cc(-c2ccnc3cc(Cn4c(=O)ccn(CC(F)(F)F)c4=O)sc23)c1O[C@@H]1CCNC[C@@H]1C [Example 549, 3-[[7-[5-chloro-3-methyl-2-[[(3S,4R)-3-methyl-4-piperidyl]oxy]phenyl]thieno[3,2-b]pyridin-2-yl]methyl]-1-(2,2,2-trifluoroethyl)pyrimidine-2,4-dione] | –
< 1000 | – | Cc1cc(Cl)cc(-c2ccnc3cc(Cn4c(=O)ccn(C)c4=O)sc23)c1O[C@@H]1CN[C@@H](C(=O)O)C1 [Example 599, (2R,4S)-4-[4-chloro-2-methyl-6-[2-[(3-methyl-2,6-dioxo-pyrimidin-1-yl)methyl]thieno[3,2-b]pyridin-7-yl]phenoxy]pyrrolidine-2-carboxylic acid] | –
< 1000 | – | Cc1cc(Cl)cc(-c2ncnc3cc(Cn4c(=O)ccn(C(C)C)c4=O)sc23)c1OC1CC2CNC1C2 (stereo not drawn) [Example 509, 3-[[4-[2-(3-azabicyclo[2.2.1]heptan-5-yloxy)-5-chloro-3-methyl-phenyl]thieno[3,2-d]pyrimidin-6-yl]methyl]-1-isopropyl-pyrimidine-2,4-dione] | –
– | – | COC[C@@H]1CCCN1C1CC(Oc2c(C)cc(Cl)cc2-c2ccnc3cc(Cn4c(=O)ccn(CC(F)(F)F)c4=O)sc23)C1 (stereo partly drawn) [Example 686, 3-[[7-[5-chloro-2-[3-[(2S)-2-(methoxymethyl)pyrrolidin-1-yl]cyclobutoxy]-3-methyl-phenyl]thieno[3,2-b]pyridin-2-yl]methyl]-1-(2,2,2-trifluoroethyl)pyrimidine-2,4-dione; 2,2,2-trifluoroacetic acid] | IC50 [3]: < 1000 nM
< 1000 | – | Cc1cc(Cl)cc(-c2ccnc3cc(Cn4c(=O)ccn(C)c4=O)sc23)c1O[C@@H]1CCNC[C@]1(C)F [Example 544, 3-[[7-[5-chloro-2-[[(3S,4R)-3-fluoro-3-methyl-4-piperidyl]oxy]-3-methyl-phenyl]thieno[3,2-b]pyridin-2-yl]methyl]-1-methyl-pyrimidine-2,4-dione; 2,2,2-trifluoroacetic acid] | –
– | < 1000 | CC[C@@H](c1cc2nccc(-c3cc(Cl)cc(C)c3O[C@@H]3CNC[C@@H]3F)c2s1)N1C(=O)CCC1=O [Example 137, 1-((S)-1-(7-(5-Chloro-2-(((3R,4S)-4-fluoropyrrolidin-3-yl)oxy)-3-methylphenyl)thieno[3,2-b]pyridin-2-yl)propyl)pyrrolidine-2,5-dione] | –

SMILES | IC50 [1] [nM] | IC50 [2] [nM] | further results
Cc1cc(Cl)cc(-c2ccnc3cc(CN4C(=O)C5C(C4=O)C5(C)C)sc23)c1O[C@H]1CC[C@H](C)NC1 (stereo partly drawn) [Example 399, 3-[[7-[5-chloro-3-methyl-2-[[(3S,6S)-6-methyl-3-piperidyl]oxy]phenyl]thieno[3,2-b]pyridin-2-yl]methyl]-6,6-dimethyl-3-azabicycllo[3.1.0]hexane-2,4-dione; 2,2,2-trifluoroacetic acid] | – | < 1000 | –
